≈ marks a conversion by molar mass, not a printed value.
Experiments:
Format in all cases: cell-based
[1] = tested on: spores of ATCC BBA1870 strain; assay: Inhibition of germination of C. difficile spores (MIC), strain ATCC BBA1870; settings: Clostridioides difficile, ATCCBBA1870STRAIN, 1 h; strain 1870; sodium taurocholate as germinant, BHIS medium, 37° C., OD580 for 60 min; read-out: MIC (minimum concentration that completely inhibits spore germination)
Method in brief: (§1)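 Germination was followed as the drop in OD580 over 60 min at 37° C in BHIS after adding sodium taurocholate to spores premixed with compound. Spores were first heat-activated (65° C, 30 min) and washed free of self-germinating spores. The inhibition rate was calculated against germinant and non-germinant controls.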

[2] = tested on: spores of ATCC 43255 strain; assay: Inhibition of germination of C. difficile spores (MIC), strain ATCC 43255; settings: Clostridioides difficile, ATCC43255, 1 h; strain 43255; sodium taurocholate as germinant, BHIS medium, 37° C., OD580 for 60 min; read-out: MIC (minimum concentration that completely inhibits spore germination)
Method in brief: as §1

[3] = tested on: spores of ATCC 630 strain; assay: Inhibition of germination of C. difficile spores (MIC), strain ATCC 630; settings: Clostridioides difficile, ATCC630, 1 h; strain 630; sodium taurocholate as germinant, BHIS medium, 37° C., OD580 for 60 min; read-out: MIC (minimum concentration that completely inhibits spore germination)
Method in brief: as §1

[4] = tested on: various C. difficile spores; assay: Inhibition of germination of C. difficile spores, summary over the strains; settings: Clostridioides difficile; Table 1, all strains
Procedure: According to a method disclosed in “The Journal of Infectious Diseases. 2013; 207: 1498-504”, spores of ATCC BBA1870, ATCC 43255 and ATCC 630 strains were obtained by culture and purification, and stored at 4° C.
Spore preparation: the C. difficile spores stored at 4° C. were heat-activated for 30 min at 65° C., centrifuged at 9,400 g for 2 min, and washed three times to remove any self-germinating spores.
Control drug: three cholic acid derivatives, a compound CamSA, a compound 20β (prepared by the method of “Journal of Medicinal Chemistry. 2017, 60 (8): 3451-3471”), and a compound 12a (prepared by the method of “Journal of Medicinal Chemistry. 2018, 61, 6759-6778”), were used as control drugs.
Compound preparation: the compound of the present disclosure, and the positive control drugs CamSA, 20β, and 12a were dissolved in DMSO, to prepare a stock solution with a concentration of 10 mM (prepared for immediate use).
The detection was conducted in a 96-well cell culture plate at a constant temperature of 37° C.; a final volume of each well of the 96-well plate was […] and a buffer was the BHIS medium; 150 μl of spores and drugs were added to the well in advance, and 50 μl of 4 mg/ml sodium taurocholate was added; OD580 was detected every 1 min immediately using a microplate reader, for continuously 60 min. A germination agent control group and a non-germination group were set up; after the detection, a final OD value of each well was compared with an initial value, and compared with the germination agent group to calculate a germination rate and an inhibition rate. A formula for the germination rate was:
Inhibition rate=100%−germination rate.

Compound | MIC [1] | MIC [2] | MIC [3] | MIC [4]
CC(NC(=O)C[C@@H](C)[C@H]1CC[C@H]2[C@@H]3C(=O)C[C@@H]4CC(=O)CC[C@]4(C)[C@H]3CC[C@]12C)c1ccc(Cl)s1 (stereo partly shown) [Compound I-32] | 0.5 µM (≈ 0.259 µg/mL) | 0.5 µM (≈ 0.259 µg/mL) | 0.5 µM (≈ 0.259 µg/mL) | ≤ 1 µM
CCCC(NC(=O)C[C@@H](C)[C@H]1CC[C@H]2[C@@H]3C(=O)C[C@@H]4CC(=O)CC[C@]4(C)[C@H]3CC[C@]12C)c1cccs1 (stereo partly shown) [Compound I-41] | 0.5 µM (≈ 0.256 µg/mL) | 0.5 µM (≈ 0.256 µg/mL) | 0.5 µM (≈ 0.256 µg/mL) | ≤ 1 µM
C[C@H](CC(=O)NC(c1ccc(Cl)s1)C1CC1)[C@H]1CC[C@H]2[C@@H]3C(=O)C[C@@H]4CC(=O)CC[C@]4(C)[C@H]3CC[C@]12C (stereo partly shown) [Compound I-51] | 0.5 µM (≈ 0.272 µg/mL) | 0.5 µM (≈ 0.272 µg/mL) | 0.5 µM (≈ 0.272 µg/mL) | ≤ 1 µM
CCC(NC(=O)C[C@@H](C)[C@H]1CC[C@H]2[C@@H]3C(=O)C[C@@H]4CC(=O)CC[C@]4(C)[C@H]3CC[C@]12C)c1cccs1 (stereo partly shown) [Compound I-35] | 0.5 µM (≈ 0.249 µg/mL) | 0.5 µM (≈ 0.249 µg/mL) | 0.5 µM (≈ 0.249 µg/mL) | ≤ 1 µM
CC[C@@H](NC(=O)C[C@@H](C)[C@H]1CC[C@H]2[C@@H]3C(=O)C[C@@H]4CC(=O)CC[C@]4(C)[C@H]3CC[C@]12C)c1cccs1 [Compound I-37] | 0.25 µM (≈ 0.124 µg/mL) | 0.25 µM (≈ 0.124 µg/mL) | 0.25 µM (≈ 0.124 µg/mL) | ≤ 1 µM
C[C@H](CC(=O)N[C@@H](c1cccs1)C1CC1)[C@H]1CC[C@H]2[C@@H]3C(=O)C[C@@H]4CC(=O)CC[C@]4(C)[C@H]3CC[C@]12C [Compound I-50] | 0.25 µM (≈ 0.127 µg/mL) | 0.25 µM (≈ 0.127 µg/mL) | 0.25 µM (≈ 0.127 µg/mL) | ≤ 1 µM
C[C@H](CC(=O)NC(c1cccs1)C1CC1)[C@H]1CC[C@H]2[C@@H]3C(=O)C[C@@H]4CC(=O)CC[C@]4(C)[C@H]3CC[C@]12C (stereo partly shown) [Compound I-48] | 0.5 µM (≈ 0.255 µg/mL) | 0.5 µM (≈ 0.255 µg/mL) | 0.5 µM (≈ 0.255 µg/mL) | ≤ 1 µM
